Here are results for eight compounds from patent publication US20150065440A1 (Progen Pharmaceuticals Limited, priority 2007, published 2015).

The target of one assay is T1, VEGF (Homo sapiens, UniProt P15692).
T1 sequence (P15692 207-395): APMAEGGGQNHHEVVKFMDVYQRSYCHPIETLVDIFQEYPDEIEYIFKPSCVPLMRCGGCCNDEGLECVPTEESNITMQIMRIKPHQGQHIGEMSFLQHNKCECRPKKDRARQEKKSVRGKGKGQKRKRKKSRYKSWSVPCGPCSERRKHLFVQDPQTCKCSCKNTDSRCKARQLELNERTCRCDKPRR
The assay can be described thus: Growth factor binding assay (SPR solution affinity), VEGF. The note with it: HBS-EP buffer, 25° C. As for the experimental part:
(§1) Binding affinities of compounds for the growth factors FGF-1, FGF-2 and VEGF were measured using a surface plasmon resonance (SPR) based solution affinity assay.^9 Heparin-coated sensorchips used for this assay were prepared via immobilisation of biotinylated BSA-heparin on a streptavidin-coated sensorchip, or via aldehyde coupling using either adipic acid dihydrazide or 1,4-diaminobutane.^9 For each Kd measurement, solutions were prepared containing a fixed concentration of protein and varying concentrations of the ligand in buffer. Ligands binding to FGF-1 and VEGF were measured in HBS-EP buffer (10 mM HEPES, pH 7.4, 150 mM NaCl, 3.0 mM EDTA and 0.005% (v/v) polysorbate 20), while binding to FGF-2 was measured in HBS-EP buffer containing 0.3 M NaCl. Prior to injection, samples were maintained at 4° C. to maximise protein stability. For each assay mixture, 50-200 μL of solution was injected at 5-40 μL/min and the relative binding response measured. All surface binding experiments were performed at 25° C. The surface was regenerated by injection of 40 μL of 4M NaCl at 40 μL/min, followed by injection of 40 μL of buffer at 40 μL/min.
(§2) Sensorgram data were analysed using the BIAevaluation software (BIAcore) and Kd values determined as previously described.^9 Where Kd values were measured in duplicate, the values represent the average of the duplicate measurements.

The next assay addresses FGF-1 (Homo sapiens, UniProt P05230). Put plainly: Growth factor binding assay (SPR solution affinity), FGF-1. Conditions: SPR, HBS-EP buffer, 25° C.; read-out: Kd FGF-1. As for the experimental part:
as §1, §2

Assay [1] concerns normal pooled human plasma. Put plainly: Anticoagulant activity, Heptest. Conditions: 0.1 mg/mL in normal pooled human plasma.
A further assay has as its target FGF-2 (Homo sapiens, UniProt P09038). The assay can be described thus: Growth factor binding assay (SPR solution affinity), FGF-2. Conditions: SPR, HBS-EP buffer containing 0.3 M NaCl, 25° C.; read-out: Kd FGF-2. As for the experimental part:
as §1, §2

Assay [2] deals with T2, recombinant human heparanase (Homo sapiens, UniProt Q9Y251).
T2 sequence (Q9Y251 158-543 limits assumed): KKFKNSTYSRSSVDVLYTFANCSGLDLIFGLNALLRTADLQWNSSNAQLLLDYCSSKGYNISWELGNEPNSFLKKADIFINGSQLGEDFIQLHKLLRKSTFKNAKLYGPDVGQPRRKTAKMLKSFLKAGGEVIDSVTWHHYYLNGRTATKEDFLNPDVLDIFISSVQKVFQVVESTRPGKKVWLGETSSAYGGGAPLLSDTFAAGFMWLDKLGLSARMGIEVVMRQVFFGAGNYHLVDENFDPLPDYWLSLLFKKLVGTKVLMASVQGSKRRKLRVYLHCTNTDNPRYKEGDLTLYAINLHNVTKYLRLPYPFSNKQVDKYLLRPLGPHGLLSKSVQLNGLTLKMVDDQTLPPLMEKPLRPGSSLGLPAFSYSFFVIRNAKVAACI
T2 sequence (Q9Y251 36-109 limits assumed): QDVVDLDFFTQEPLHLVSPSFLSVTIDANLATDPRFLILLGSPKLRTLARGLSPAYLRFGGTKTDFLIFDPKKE
The assay can be described thus: Heparanase inhibition assay (fondaparinux cleavage, WST-1). Conditions: read-out: Ki Heparanase; IC50 converted into Ki; fondaparinux 100 μM, pH 5.0.

Assay [3] deals with pooled normal human plasma. Put plainly: Anticoagulant activity, APTT. Conditions: 0.1 mg/mL in normal pooled human plasma. As for the experimental part: APTT measurements were performed on a STAGO STA-Compact Coagulation Analyser using standard protocols according to the manufacturer's instructions. Unfractionated heparin (UFH) was used as a control.

Counter-ions that a name gives are not always drawn.

The term Kd denotes the constant that tells how readily two partners part at equilibrium. Usually Ki stands for the dissociation constant of the complex between target and ligand, obtained from inhibition or displacement.

Sequence of FGF-2 (P09038 143-288, species assumed): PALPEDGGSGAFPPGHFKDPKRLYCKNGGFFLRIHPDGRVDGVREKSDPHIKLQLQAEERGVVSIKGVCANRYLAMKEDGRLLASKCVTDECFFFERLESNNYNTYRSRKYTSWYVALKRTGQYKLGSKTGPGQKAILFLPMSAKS
Sequence of FGF-1 (P05230 whole entry, species assumed): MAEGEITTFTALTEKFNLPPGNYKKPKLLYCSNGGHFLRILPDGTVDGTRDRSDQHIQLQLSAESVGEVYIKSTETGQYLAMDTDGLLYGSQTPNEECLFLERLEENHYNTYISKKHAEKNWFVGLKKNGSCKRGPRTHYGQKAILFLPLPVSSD

Take `CC(C)CCCC(C)C1CCC2C3CC=C4CC(OC5OC(COS(=O)(=O)O)C(OS(=O)(=O)O)C(OS(=O)(=O)O)C5OC5OC(COS(=O)(=O)O)C(OS(=O)(=O)O)C(OC6OC(COS(=O)(=O)O)C(OS(=O)(=O)O)C(OC7OC(COS(=O)(=O)O)C(OS(=O)(=O)O)C(OS(=O)(=O)O)C7OS(=O)(=O)O)C6OS(=O)(=O)O)C5OS(=O)(=O)O)CCC4(C)C3CCC12C` [Compound 17, 3β-Cholesteryl 2,3,4,6-tetra-O-sodium sulfonato-α-D-mannopyranosyl-(1→3)-2,4,6-tri-O-sodium sulfonato-α-D-mannopyranosyl-(1→3)-2,4,6-tri-O-sodium sulfonato-α-D-mannopyranosyl-(1→2)-3,4,6-tri-O-sodium sulfonato-α-D-mannopyranoside]: the Kd on VEGF was found to be 24 ± 6 nM; on FGF-1, 3.2 ± 0.5 nM.
In the case of `CCCCCCCCCCCCCCCCCC(=O)NCCCOC1OC(COS(=O)(=O)O)C(OS(=O)(=O)O)C(OS(=O)(=O)O)C1OC1OC(COS(=O)(=O)O)C(OS(=O)(=O)O)C(OC2OC(COS(=O)(=O)O)C(OS(=O)(=O)O)C(OC3OC(COS(=O)(=O)O)C(OS(=O)(=O)O)C(OS(=O)(=O)O)C3OS(=O)(=O)O)C2OS(=O)(=O)O)C1OS(=O)(=O)O` [Compound 24, 3-Stearamidopropyl 2,3,4,6-tetra-O-sodium sulfonato-α-D-mannopyranosyl-(1→3)-2,4,6-tri-O-sodium sulfonato-α-D-mannopyranosyl-(1→3)-2,4,6-tri-O-sodium sulfonato-α-D-mannopyranosyl-(1→2)-3,4,6-tri-O-sodium sulfonato-α-D-mannopyranoside], the Heptest in assay [1] is recorded as 24.5 s. Also, the Kd on VEGF turned out to be 40 ± 17 nM; at FGF-2, 108 ± 11 nM; at FGF-1, 0.44 ± 0.04 nM. Also, in assay [2], the Ki was 6 ± 2.1 nM. In assay [3], this compound came in with an APTT of 68.1 s.
Consider `CC(C)CCCC(C)C1CCC2C3CCC4CC(OC5OC(COS(=O)(=O)O)C(OS(=O)(=O)O)C(OS(=O)(=O)O)C5OC5OC(COS(=O)(=O)O)C(OS(=O)(=O)O)C(OC6OC(COS(=O)(=O)O)C(OS(=O)(=O)O)C(OC7OC(COS(=O)(=O)O)C(OS(=O)(=O)O)C(OC8OC(COS(=O)(=O)O)C(OS(=O)(=O)O)C(OS(=O)(=O)O)C8OS(=O)(=O)O)C7OS(=O)(=O)O)C6OS(=O)(=O)O)C5OS(=O)(=O)O)CCC4(C)C3CCC12C` [Compound 27, 3β-Cholestanyl 2,3,4,6-tetra-O-sodium sulfonato-α-D-mannopyranosyl-(1→3)-2,4,6-tri-O-sodium sulfonato-α-D-mannopyranosyl-(1→3)-2,4,6-tri-O-sodium sulfonato-α-D-mannopyranosyl-(1→3)-2,4,6-tri-O-sodium sulfonato-α-D-mannopyranosyl-(1→2)-3,4,6-tri-O-sodium sulfonato-α-D-mannopyranoside], for which the Heptest in assay [1] came out at 29.6 s. Further, the Kd on VEGF was 1.04 ± 0.19 nM; on FGF-2 it was 39 ± 6 nM; on FGF-1, 0.24 ± 0.1 nM. For the same compound, the Ki in assay [2] came out at 5.5 ± 2.6 nM. This compound also returned an APTT in assay [3] of 63.3 s.
As for `CC(C)CCCC(C)C1CCC2C3CCC4CC(OC5OC(COS(=O)(=O)O)C(OS(=O)(=O)O)C(OS(=O)(=O)O)C5OC5OC(COS(=O)(=O)O)C(OS(=O)(=O)O)C(OC6OC(COS(=O)(=O)O)C(OS(=O)(=O)O)C(OS(=O)(=O)O)C6OS(=O)(=O)O)C5OS(=O)(=O)O)CCC4(C)C3CCC12C` [Compound 39, 3β-Cholestanyl 2,3,4,6-tetra-O-sodium sulfonato-α-D-mannopyranosyl-(1→3)-2,4,6-tri-O-sodium sulfonato-α-D-mannopyranosyl-(1→2)-3,4,6-tri-O-sodium sulfonato-α-D-mannopyranoside], the Heptest in assay [1] stood at 27.3 s. For the same compound, the dissociation constant (Kd) is 319 ± 19 nM at VEGF, 631 ± 4 nM on FGF-2 and 18.5 ± 1.8 nM at FGF-1. In addition, in assay [2], the Ki amounted to 6.4 ± 2.5 nM. Moreover, the APTT in assay [3] is 50.7 s.
Regarding `CCCCCCCCCCCCCCCCCC(=O)NCCCOC1OC(COS(=O)(=O)O)C(OS(=O)(=O)O)C(OS(=O)(=O)O)C1OC1OC(COS(=O)(=O)O)C(OS(=O)(=O)O)C(OC2OC(COS(=O)(=O)O)C(OS(=O)(=O)O)C(OC3OC(COS(=O)(=O)O)C(OS(=O)(=O)O)C(OC4OC(COS(=O)(=O)O)C(OS(=O)(=O)O)C(OS(=O)(=O)O)C4OS(=O)(=O)O)C3OS(=O)(=O)O)C2OS(=O)(=O)O)C1OS(=O)(=O)O` [Compound 44, 3-Stearamidopropyl 2,3,4,6-tetra-O-sodium sulfonato-α-D-mannopyranosyl-(1→3)-2,4,6-tri-O-sodium sulfonato-α-D-mannopyranosyl-(1→3)-2,4,6-tri-O-sodium sulfonato-α-D-mannopyranosyl-(1→3)-2,4,6-tri-O-sodium sulfonato-α-D-mannopyranosyl-(1→2)-3,4,6-tri-O-sodium sulfonato-α-D-mannopyranoside], the Heptest in assay [1] is reported as 58.5 s. The Kd at VEGF came to 2.7 ± 0.5 nM; on FGF-2, 80 ± 40 nM; at FGF-1, 0.17 ± 0.07 nM. The Ki in assay [2] amounted to 4.4 ± 1.4 nM. In assay [3], this compound showed an APTT of 217.0 s.
In turn, `CC(C)CCCC(C)C1CCC2C3CCC4CC(OC5OC(COC6OC(COS(=O)(=O)O)C(OC7OC(COS(=O)(=O)O)C(OC8OC(COS(=O)(=O)O)C(OS(=O)(=O)O)C(OS(=O)(=O)O)C8OS(=O)(=O)O)C(OS(=O)(=O)O)C7OS(=O)(=O)O)C(OS(=O)(=O)O)C6OS(=O)(=O)O)C(OS(=O)(=O)O)C(OS(=O)(=O)O)C5OS(=O)(=O)O)CCC4(C)C3CCC12C` [Compound 119, 3′-Cholestanyl 2,3,4,6-tetra-O-sulfo-α-D-glucopyranosyl-(1→4)-2,3,6-tri-O-sulfo-α-D-glucopyranosyl-(1→4)-2,3,6-tri-O-sulfo-β-D-glucopyranosyl-(1→6)-2,3,4-tri-O-sulfo-α-D-mannopyranoside, tridecasodium salt] registered a Heptest in assay [1] of 28.6 s. Besides, the dissociation constant (Kd) on VEGF stood at 7.9 ± 0.7 nM; on FGF-2, 286 ± 25 nM; at FGF-1, 5.9 ± 1.6 nM. The compound further gave an APTT in assay [3] of 57.1 s.
On to `CC(C)CCCC(C)C1CCC2C3CCC4CC(OCC(=O)NC5OC(COS(=O)(=O)O)C(OC6OC(COS(=O)(=O)O)C(OC7OC(COS(=O)(=O)O)C(OS(=O)(=O)O)C(OS(=O)(=O)O)C7OS(=O)(=O)O)C(OS(=O)(=O)O)C6OS(=O)(=O)O)C(OS(=O)(=O)O)C5OS(=O)(=O)O)CCC4(C)C3CCC12C` (stereo not shown) [Compound 134], for which the dissociation constant (Kd) on VEGF turned out to be 1080 ± 200 nM; on FGF-2, 630 ± 30 nM; at FGF-1 it was 13 ± 3 nM.
In the case of `CC(C)CCCC(C)C1CCC2C3CCC4CC(OC(C(OS(=O)(=O)[O-])C(OS(=O)(=O)O)C(OC5OC(COS(=O)(=O)O)C(OC6OC(COS(=O)(=O)O)C(OC7OC(COS(=O)(=O)O)C(OS(=O)(=O)O)C(OS(=O)(=O)O)C7OS(=O)(=O)O)C(OS(=O)(=O)O)C6OS(=O)(=O)O)C(OS(=O)(=O)O)C5OS(=O)(=O)O)C(COS(=O)(=O)O)OS(=O)(=O)O)[n+]5ccccc5)CCC4(C)C3CCC12C` [Compound 140, 3′-Cholestanyl 2,3,4,6-tetra-O-sulfo-α-D-glucopyranosyl-(1→4)-2,3,6-tri-O-sulfo-α-D-glucopyranosyl-(1→4)-2,3,6-tri-O-sulfo-α-D-glucopyranosyl-(1→4)-((1-pyridinium-1-yl)-2,3,5,6-tetra-O-sulfo-D-glucoside, tridecasodium salt], the Kd on VEGF amounted to 12 ± 2 nM; on FGF-2, 380 ± 40 nM; on FGF-1, 1.3 ± 0.6 nM.
